23 compounds from patent US20260028352A1, “MACROCYCLIC IMIDAZO [1,2-B] PYRIDAZINE DERIVATIVE, PREPARATION METHOD THEREFOR, AND USE THEREOF” (SUZHOU LANGRUI BIOPHARMACEUTICAL CO., LTD., priority 2022, published 2026) can be followed below.

Chain of TRKA^WT kinase (P04629 33-796): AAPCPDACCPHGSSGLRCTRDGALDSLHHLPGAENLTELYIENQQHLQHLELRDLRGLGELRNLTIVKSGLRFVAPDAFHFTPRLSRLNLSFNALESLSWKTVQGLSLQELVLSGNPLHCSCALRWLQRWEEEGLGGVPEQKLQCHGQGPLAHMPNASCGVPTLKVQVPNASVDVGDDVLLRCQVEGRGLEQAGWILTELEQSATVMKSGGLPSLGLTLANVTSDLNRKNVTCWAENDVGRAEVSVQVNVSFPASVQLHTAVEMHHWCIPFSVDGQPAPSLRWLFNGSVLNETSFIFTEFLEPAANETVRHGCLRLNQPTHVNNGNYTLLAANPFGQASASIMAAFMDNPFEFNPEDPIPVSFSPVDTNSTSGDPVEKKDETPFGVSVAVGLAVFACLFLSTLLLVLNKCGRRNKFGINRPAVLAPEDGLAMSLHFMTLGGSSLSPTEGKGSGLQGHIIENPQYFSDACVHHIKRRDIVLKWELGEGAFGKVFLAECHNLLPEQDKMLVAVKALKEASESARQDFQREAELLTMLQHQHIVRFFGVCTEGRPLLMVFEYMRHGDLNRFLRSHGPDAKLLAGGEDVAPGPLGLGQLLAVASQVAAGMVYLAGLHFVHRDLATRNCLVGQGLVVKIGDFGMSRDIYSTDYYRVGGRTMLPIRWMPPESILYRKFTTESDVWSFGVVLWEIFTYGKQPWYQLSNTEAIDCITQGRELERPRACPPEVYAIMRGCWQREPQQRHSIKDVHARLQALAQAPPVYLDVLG

The first assay relates to Ba/F3-TPM3-NTRK1-G667C cells. Put plainly: Growth inhibition of Ba/F3-TPM3-NTRK1-G667C cells (Cell Titer-Glo). Format: cell-based. The conditions noted are these: 72 hours, CTG; read-out: inhibitory activity IC50 Ba/F3-TPM3-NTRK1-G667C. Here is the method: Then the solutions were subjected to a gradient dilution with DMSO: a clean, sterile V-bottom 96-well microplate was placed in the biological safety cabinet. First, 4 μL of DMSO was added to well B2 and 10 μL of DMSO was added to wells B3-B11 respectively; Next, 6 μL of the 10 mM solution was added to well B2. The microplate was pipetted up and down 10 times for mixing. […] Mixing was performed by pipetting up and down 10 times. The solution was diluted in order until well B10. only DMSO was added to well B11 (no compound).
6× Compound Solution Preparation (6-fold dilution, × represents dilution factor): (Initial final concentration: 10 μM), a clean, sterile V-bottom 96-well microplate was placed in the biological safety cabinet. 99 μL of cell culture medium was added to each well from B2 to G11. By using a 12-channel pipettor, 1 μL of the compound solution prepared in the previous step was added into the corresponding wells. The solutions were pipetted up and down 10 times to mix the solutions. The highest concentration of compound in this step was 60 μM.
Treatment of Cells: the above-prepared cell culture plate was taken out of the incubator. 20 μL of compound solution from each well was added to the corresponding cell culture wells. The lowest pipetting speed was used and touching the bottom of the plate was avoided. The culture plate was gently shaked to mix the compound solution, then the plate was returned to the incubator for further culture for 72 hours.
The highest treatment concentration of the compound was 10 μM. After 72 hours of treatment, the Cell Titer-Glo (CTG) assay was performed. First, the cell culture plate was removed from the CO2 incubator and allowed to stand at room temperature for 30 minutes to ensure uniform temperature of the plate. The pre-prepared Cell Titer-Glo reagent (following the manufacturer's instructions) was taken and allowed to stand at room temperature to thaw. 60 μL of Cell Titer-Glo reagent was added to each well containing cells. The cells were incubated on a horizontal shaker in a dark place at 225 rpm for 1 hour at room temperature. Then, a Tecan Spark microplate reader was used to read the plate using chemiluminescence according to the manufacturer's instructions.
A general note: In ATP-based viability assays light output follows the ATP content of the culture.
Consider `C[C@H]1Nc2ccc3ncc(n3n2)-c2cc(ncn2)CCOc2ccc(F)cc21` [Example I-74, (4R,E)-5′-fluoro-4-methyl-6-oxa-3-aza-2(3,6)-imidazo[1,2-b]pyridazina-1(4,6)-pyrimidina-5(1,2)-benzenacyclooctaphane], for which the IC50 was < 100 nM.

In the case of `C[C@H]1Nc2ccc3ncc(n3n2)-c2cc(ccn2)CCOc2ncc(F)cc21` [Example I-75, (4R,E)-5^5-fluoro-4-methyl-6-oxa-3-aza-2(3,6)-imidazo[1,2-b]pyridazina-1(2,4), 5(3,2)-dipyridinacyclooctaphane], the IC50 was < 100 nM.

Turning to `C[C@H]1Nc2ccc3ncc(n3n2)-c2cc(ccn2)CCOc2ccc(F)cc21` [Example I-76, (4R,E)-5-fluoro-4-methyl-6-oxa-3-aza-2(3,6)-imidazo[1,2-b]pyridazina-1(2,4)-pyridina-5(1,2)-benzenacyclooctaphane], the IC50 was < 100 nM.

In the case of `C[C@H]1Nc2ccc3ncc(n3n2)-c2cc(ncn2)COc2ncc(F)cc21` [Example I-77, (6R,E)-5^5-fluoro-6-methyl-4-oxa-7-aza-1(3,6)-imidazo[1,2-b]pyridazina-2(4,6)-pyrimidina-5(2,3)-pyridinacycloheptaphane], the IC50 was < 100 nM.

With `C[C@H]1Nc2ccc3ncc(n3n2)-c2cc(ncn2)COc2ccc(F)cc21` [Example I-78, (6R,E)-5^4-fluoro-6-methyl-4-oxa-7-aza-1(3,6)-imidazo[1,2-b]pyridazina-2(4,6)-pyrimidina-5(1,2)-benzenacycloheptaphane], the IC50 is < 100 nM.

For the compound `C[C@H]1Nc2ccc3ncc(n3n2)-c2nccc(n2)COc2ncc(F)cc21` [Example I-79, (6R,E)-5^5-fluoro-6-methyl-4-oxa-7-aza-1(3,6)-imidazo[1,2-b]pyridazina-2(2,4)-pyrimidina-5(2,3)-pyridinacycloheptaphane], the IC50 is < 100 nM.

With `C[C@H]1Nc2ccc3ncc(n3n2)-c2nccc(n2)COc2ccc(F)cc21` [Example I-80, (6R,E)-5^4-fluoro-6-methyl-4-oxa-7-aza-1(3,6)-imidazo[1,2-b]pyridazina-2(2,4)-pyrimidina-5(1,2)-benzenacycloheptaphane], the IC50 was < 100 nM.

`C[C@H]1Nc2ccc3ncc(n3n2)-c2cc(cnn2)COc2ncc(F)cc21` [Example I-81, (6R,E)-5^5-fluoro-6-methyl-4-oxa-7-aza-1(3,6)-imidazo[1,2-b]pyridazina-2(3,5)-pyridazina-5(2,3)-pyridinacycloheptaphane]: the IC50 is < 100 nM.

Regarding `C[C@H]1Nc2ccc3ncc(n3n2)-c2cc(cnn2)COc2ccc(F)cc21` [Example I-82, (6R,E)-54-fluoro-6-methyl-4-oxa-7-aza-1(3,6)-imidazo[1,2-b]pyridazina-2(3,5)-pyridazina-5(1,2)-benzenacycloheptaphane], the IC50 was < 100 nM.

In the case of `C[C@H]1Nc2ccc3ncc(n3n2)-c2nccc(n2)CCOc2ncc(F)cc21` [Example I-83, (4R,E)-5′-fluoro-4-methyl-6-oxa-3-aza-2(3,6)-imidazo[1,2-b]pyridazina-1(2,4)-pyrimidina-5(3,2)-pyridinacyclooctaphane], the IC50 is < 100 nM.

Take `C[C@H]1Nc2ccc3ncc(n3n2)-c2nccc(n2)CCOc2ccc(F)cc21` [Example I-84, (4R,E)-5^5-fluoro-4-methyl-6-oxa-3-aza-2(3,6)-imidazo[1,2-b]pyridazina-1(2,4)-pyrimidina-5(1,2)-benzenacyclooctaphane]: the IC50 was < 100 nM.

On to `Fc1ccc2c(c1)[C@H]1CCCN1c1ccc3ncc(n3n1)-c1nccc(n1)CCO2` [Example I-85, (3^2R,E)-4^5-fluoro-5-oxa-2(3,6)-imidazo[1,2-b]pyridazina-1(2,4)-pyrimidina-3(1,2)-pyrrolidina-4(1,2)-benzenacycloheptaphane], for which the IC50 is < 100 nM.

For `Fc1cnc2c(c1)[C@H]1CCCN1c1ccc3ncc(n3n1)-c1nccc(n1)CCO2` [Example I-87, (3^2R,E)-4^5-fluoro-5-oxa-2(3,6)-imidazo[1,2-b]pyridazina-1(2,4)-pyrimidina-4(3,2)-pyridina-3(1,2)-pyrrolidinacycloheptaphane], the IC50 is < 100 nM.

`Fc1ccc2c(c1)[C@H]1CCCN1c1ccc3ncc(n3n1)-c1cc(cnn1)CCO2` [Example I-91, (3^2R,E)-4^5-fluoro-5-oxa-2(3,6)-imidazo[1,2-b]pyridazina-1(3,5)-pyridazina-3(1,2)-pyrrolidina-4(1,2)-benzenacycloheptaphane]: the IC50 was < 100 nM.

Take `Fc1cnc2c(c1)[C@H]1CCCN1c1ccc3ncc(n3n1)-c1cc(cnn1)CCO2` [Example I-93, (3^2R,E)-4^5-fluoro-5-oxa-2(3,6)-imidazo[1,2-b]pyridazina-1(3,5)-pyridazina-4(3,2)-pyridina-3(1,2)-pyrrolidinacycloheptaphane]: the IC50 was < 100 nM.

For the next assay, the target named is TRKA^WT kinase (Homo sapiens (Human), UniProt P04629). Put plainly: Inhibitory activity against TRKA WT kinase (Caliper mobility shift). Type of assay: biochemical. Particulars: in vitro kinase assay. Here is the method:
Kinase Assay Process: 1× Kinase buffer was prepared. […] The compounds were serially diluted into 10 concentrations ([…], 0.15, and 0.05 nM) using a Precision 3-fold dilution method. By using the Echo550 liquid handler, 250 nL of the 100-fold final concentration compound was transferred to an OptiPlate-384F plate. a 2.5× final concentration kinase solution was prepared using 1× Kinase buffer. 10 μL of the 2.5× final concentration kinase solution was added to the compound wells and the positive control wells, and 10 μL of 1× Kinase buffer was added to the negative control wells. The plate was centrifuged at 1000 rpm for 30 seconds, vortexed for mixing, and then incubated at room temperature for 10 minutes. A mixture of 5/3× final concentration of ATP and Kinase Substrate 22 was prepared using 1× Kinase buffer. 15 μL of the mixture of the 5/3× final concentration ATP and the substrate was added to initiate the reaction, the 384-well plate was centrifuged at 1000 rpm for 30 seconds, vortexed for mixing, and incubated at room temperature for the required time. 30 μL of the termination solution was added to stop the kinase reaction, the plate was centrifuged at 1000 rpm for 30 seconds, and vortexed for mixing. The conversion rate was measured using the Caliper EZ Reader.
Data Analysis: the inhibition rate was calculated as follows:
% Inhibition=(Conversion %_max−conversion %_sample)÷(Conversion %_max−conversion %_min)×100
Conversion %_sample is the conversion rate reading for the sample; Conversion %_min is the average value of the negative control wells, representing the conversion rate for wells without enzyme activity: Conversion %_max is the average value of the positive control wells, representing the conversion rate for wells without compound inhibition. A dose-response curve was fitted using the log concentration of the compound as the X-axis and the percentage inhibition as the Y-axis. The log(inhibitor) vs. response-variable slope of the GraphPad Prism 5 software was used to fit the dose-response curve, and the IC50 value for each compound was obtained. The calculation formula is:
Y=Bottom+(Top−Bottom)/(1+10^((Log IC50−X)*HillSlope)).
wherein X represents the concentration of the compound to be tested; Y represents the inhibition rate at the concentration X: Top refers to the maximum response: Bottom refers to the baseline response; HillSlope refers to the slope of the curve (i.e., the gradient).
As for `C[C@@H]1Nc2ccc3ncc(n3n2)-c2cc(ccn2)COc2ccc(F)cc21` [Example I-15, (S)-(E)-5′-fluoro-6-methyl-4-oxa-7-aza-1(3,6)-imidazo[1,2-b]pyridazina-2(2,4)-pyridina-5(1,2)-benzenacycloheptaphane], the IC50 amounted to 4.8 nM.

Consider `C[C@@H]1Nc2ccc3ncc(n3n2)-c2cc(ccn2)COc2c(F)cc(F)cc21` [Example I-17, (S)-(E)-5′,5′-difluoro-6-methyl-4-oxa-7-aza-1(3,6)-imidazo[1,2-b]pyridazine-2(2,4)-pyridina-5(1,2)-benzenacycloheptaphane], for which the IC50 came out at 5.2 nM.

In the case of `C[C@@H]1Nc2ccc3ncc(n3n2)-c2cc(ccn2)COc2ccccc21` [Example I-19, (S)-(E)-6-methyl-4-oxa-7-aza-1(3,6)-imidazo[1,2-b]pyridazine-2(2,4)-pyridina-5(1,2)-benzenacycloheptaphane], the IC50 came out at 5.7 nM.

In the case of `C[C@@H]1Nc2ccc3ncc(n3n2)-c2cc(ccn2)COc2ncccc21` [Example I-21, (6S,E)-6-methyl-4-oxa-7-aza-1(3,6)-imidazo[1,2-b]pyridazina-2(2,4), 5(2,3)-dipyridinacycloheptaphane], the IC50 worked out at 6.1 nM.

On to `C[C@@H]1Nc2ccc3ncc(n3n2)-c2cncc(c2)COc2ccc(F)cc21` [Example I-23, (S)-(E)-5^4-fluoro-6-methyl-4-oxa-7-aza-1(3,6)-imidazo[1,2-b]pyridazina-2(3,5)-pyridina-5(1,2)-benzenacycloheptaphane], for which the IC50 turned out to be 4.8 nM.

As for `C[C@@H]1Nc2ccc3ncc(n3n2)-c2cc(ncn2)COc2ccccc21` [Example I-27, (6S,E)-6-methyl-4-oxa-7-aza-1(3,6)-imidazo[1,2-b]pyridazina-2(4,6)-pyrimidina-5(1,2)-benzenacycloheptaphane], the IC50 amounted to 3.7 nM.

As for `C[C@@H]1Nc2ccc3ncc(n3n2)-c2cc(ccn2)CCOc2ccccc21` [Example I-29, (4S,E)-4-methyl-6-oxa-3-aza-2(3,6)-imidazo [1,2-b]pyridazina-1(2,4)-pyridina-5(1,2)-benzenacyclooctaphane], the IC50 worked out at 4.9 nM.

Take `C[C@@H]1Nc2ccc3ncc(n3n2)-c2cc(ccn2)OCc2ccc(F)cc21` [Example I-31, (S)-(E)-5^4-fluoro-6-methyl-3-oxa-7-aza-1(3,6)-imidazo[1,2-b]pyridazina-2(2,4)-pyridina-5(1,2)-benzenacycloheptaphane]: the IC50 is 5.7 nM.
